ChEMBL document CHEMBL5370539, “Oxazole-4-carboxamide/butylated hydroxytoluene hybrids with GSK-3β inhibitory and neuroprotective activities against Alzheimer's disease” (Eur J Med Chem, 2023)
Active and inactive are the calls of the source. No cut-off for these calls is given here.

Key:
[1] = biological target: Glycogen synthase kinase-3 beta (Homo sapiens, UniProt P49841); experiment: Inhibition of recombinant human GSK-3beta using YRRAAVPPSPSLSRHSSPHQ(pS)EDEE as substrate preincubated for 15 mins followed by substrate addition and measured after 60 mins by Kinase-Glo luminescent kinase assay
PC-12 = experiment: Neuroprotective activity against H2O2-induced cytotoxicity in rat PC12 cells assessed as increase in cell viability at 10 uM preincubated for 12 hrs followed by replacement with fresh media and H2O2 stimulation for 12 hrs by MTT assay; type: functional, cell-based

Sequence of Glycogen synthase kinase-3 beta (P49841 whole entry): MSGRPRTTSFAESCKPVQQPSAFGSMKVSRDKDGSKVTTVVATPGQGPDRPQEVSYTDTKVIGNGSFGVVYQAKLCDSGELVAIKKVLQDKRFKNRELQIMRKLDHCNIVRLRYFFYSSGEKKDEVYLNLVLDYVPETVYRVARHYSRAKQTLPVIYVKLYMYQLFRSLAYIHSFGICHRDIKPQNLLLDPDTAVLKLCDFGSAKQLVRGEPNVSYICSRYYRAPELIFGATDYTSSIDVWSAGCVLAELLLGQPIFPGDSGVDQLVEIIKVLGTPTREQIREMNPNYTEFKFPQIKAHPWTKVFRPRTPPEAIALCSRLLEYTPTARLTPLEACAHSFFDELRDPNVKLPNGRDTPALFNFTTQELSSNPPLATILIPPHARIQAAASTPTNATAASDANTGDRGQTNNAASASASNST

Structure (SMILES) | IC50 [1] [nM] | Activity (PC-12)
COc1ccc(-c2ocnc2C(=O)NCCCNC(=O)c2cc(C(C)(C)C)c(O)c(C(C)(C)C)c2)cc1I | 0.48 | –
COc1ccc(-c2ocnc2C(=O)NCCCCNC(=O)c2cc(C(C)(C)C)c(O)c(C(C)(C)C)c2)cc1Cl | 0.81 | Active
COc1ccc(-c2ocnc2C(=O)NCCCNC(=O)CCc2cc(C(C)(C)C)c(O)c(C(C)(C)C)c2)cc1I | > 1 | –
COc1c(F)cc(-c2ocnc2C(=O)NCCCNC(=O)c2cc(C(C)(C)C)c(O)c(C(C)(C)C)c2)cc1F | 0.96 | –
COc1ccc(-c2ocnc2C(=O)NCCCc2ccc(NC(=O)c3cc(C(C)(C)C)c(O)c(C(C)(C)C)c3)cc2)cc1Cl | 0.92 | Active
COc1ccc(-c2ocnc2C(=O)NCCCCNC(=O)c2cc(C(C)(C)C)c(O)c(C(C)(C)C)c2)cc1F | 0.62 | Active
COc1ccc(-c2ocnc2C(=O)NCCCNC(=O)CCc2cc(C(C)(C)C)c(O)c(C(C)(C)C)c2)cc1Cl | > 1 | –
COc1ccc(-c2ocnc2C(=O)NCCCc2ccc(NC(=O)/C=C/c3cc(C(C)(C)C)c(O)c(C(C)(C)C)c3)cc2)cc1F | > 1 | –
COc1ccc(-c2ocnc2C(=O)NCCCn2cc(CNC(=O)c3cc(C(C)(C)C)c(O)c(C(C)(C)C)c3)nn2)cc1I | 0.31 | –
COc1ccc(-c2ocnc2C(=O)NCCCNC(=O)c2cc(C(C)(C)C)c(O)c(C(C)(C)C)c2)cc1F | > 1 | –
COc1ccc(-c2ocnc2C(=O)NCCCNC(=O)CCc2cc(C(C)(C)C)c(O)c(C(C)(C)C)c2)cc1F | > 1 | –
COc1ccc(-c2ocnc2C(=O)NCCCn2cc(CNC(=O)/C=C/c3cc(C(C)(C)C)c(O)c(C(C)(C)C)c3)nn2)cc1I | 0.33 | –
COc1ccc(-c2ocnc2C(=O)NCCCn2cc(CNC(=O)CCc3cc(C(C)(C)C)c(O)c(C(C)(C)C)c3)nn2)cc1Cl | 0.27 | –
COc1c(F)cc(-c2ocnc2C(=O)NCCCc2ccc(NC(=O)/C=C/c3cc(C(C)(C)C)c(O)c(C(C)(C)C)c3)cc2)cc1F | 0.95 | Active
COc1c(F)cc(-c2ocnc2C(=O)NCCCNC(=O)CCc2cc(C(C)(C)C)c(O)c(C(C)(C)C)c2)cc1F | > 1 | –
COc1ccc(-c2ocnc2C(=O)NCCCCNC(=O)CCc2cc(C(C)(C)C)c(O)c(C(C)(C)C)c2)cc1F | 0.78 | Active
COc1ccc(-c2ocnc2C(=O)NCCCCNC(=O)CCc2cc(C(C)(C)C)c(O)c(C(C)(C)C)c2)cc1Cl | 0.84 | Active
COc1ccc(-c2ocnc2C(=O)NCCCNC(=O)/C=C/c2cc(C(C)(C)C)c(O)c(C(C)(C)C)c2)cc1Cl | 0.41 | –
COc1ccc(-c2ocnc2C(=O)NCCCNC(=O)c2cc(C(C)(C)C)c(O)c(C(C)(C)C)c2)cc1Cl | > 1 | –
COC(=O)[C@@]12OC[C@]34[C@H]([C@@H](O)[C@@H]1O)[C@@]1(C)CC(=O)C(O)=C(C)[C@@H]1C[C@H]3OC(=O)[C@H](OC(=O)C=C(C)C)[C@@H]24 | – | inactive
COc1ccc(-c2ocnc2C(=O)NCCCNC(=O)/C=C/c2cc(C(C)(C)C)c(O)c(C(C)(C)C)c2)cc1I | > 1 | –
COc1ccc(-c2ocnc2C(=O)NCCCc2ccc(NC(=O)CCc3cc(C(C)(C)C)c(O)c(C(C)(C)C)c3)cc2)cc1Cl | > 1 | –
COc1ccc(-c2ocnc2C(=O)NCCCn2cc(CNC(=O)CCc3cc(C(C)(C)C)c(O)c(C(C)(C)C)c3)nn2)cc1I | 0.81 | –
COc1ccc(-c2ocnc2C(=O)NCCCn2cc(CNC(=O)/C=C/c3cc(C(C)(C)C)c(O)c(C(C)(C)C)c3)nn2)cc1Cl | 0.76 | –
COc1ccc(-c2ocnc2C(=O)NCCCn2cc(CNC(=O)c3cc(C(C)(C)C)c(O)c(C(C)(C)C)c3)nn2)cc1Cl | > 1 | –
